This passage reports IC50 and EC50 results from patent US12252481B2, “Anti-viral compounds” (Aligos Therapeutics, Inc., priority 2021, dated 2025).

The structures appear in SMILES notation. Where two headings read alike, the source gives them in different places.

In assay [1] the target is T1, human cathepsin L (Homo sapiens, UniProt P07711).
T1 construct: purchased R&D Systems
Nature of the assay: Cathepsin L assay (Z-FR-AMC fluorescence). It counts as biochemical. The following applies: 10 pM human cathepsin L, 30 mins preincubation, Z-FR-AMC 2 μM. An outline of the steps: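 IC50 values were taken from four-parameter fits of fluorescence read at 355/460 nm every 2 minutes for 30 minutes. The reaction started when 2 μM Z-FR-AMC was added. Before that, 10 pM human cathepsin L had been preincubated with inhibitor for 30 minutes.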

Assay [2] deals with B.1.1.7 lineage SARS-CoV-2. As to the kind of experiment: microbe, parasite or virus in culture. It counts as cell-based. The settings on record: Severe acute respiratory syndrome coronavirus 2, 96 h, read-out: A549-dual_ACE2_TMPRSS2 (EC50).
For assay [3], the system named is SARS-CoV-2-GHB-03021/2020. It counts as cell-based. The settings on record: read-out: VeroE6 + CP (EC50).
Assay [4] deals with human beta-coronavirus OC43. Nature of the assay: OC43 coronavirus antiviral assay in HeLa cells (cytopathic effect, cell-titer-glo). In kind it is cell-based. The following applies: Betacoronavirus 1, OC43, HeLa, 144 h, 6 days at 33° C.
Assay [5] addresses T2, SARS-Cov-2 3CLpro (Severe acute respiratory syndrome coronavirus 2, UniProt P0DTD1).
T2 construct: 3CLpro and HRV3C was added using a Multidrop Combi
Nature of the assay: biochemical. The settings on record: 3CLpro, 30 mins preincubation, SAMDI-MS; read-out: SARS-Cov-2 IC50 (class).

The target in assay [6] is T3, HRV3C (Human rhinovirus 14, UniProt P03303).
T3 construct: 3CLpro and HRV3C was added using a Multidrop Combi
T3 sequence (P03303 1538-1719): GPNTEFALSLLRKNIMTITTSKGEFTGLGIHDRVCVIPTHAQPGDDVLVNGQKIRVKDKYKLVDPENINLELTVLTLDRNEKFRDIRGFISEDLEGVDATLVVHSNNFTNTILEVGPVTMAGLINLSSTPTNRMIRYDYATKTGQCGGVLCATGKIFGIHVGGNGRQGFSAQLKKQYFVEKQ
Nature of the assay: biochemical. Further details: species or system HRV. The settings on record: HRV3C, 30 mins preincubation, SAMDI-MS.

The mark [7] stands for this setting: […], numeric bounds given instead of class symbols.

T1 sequence (P07711 114-333): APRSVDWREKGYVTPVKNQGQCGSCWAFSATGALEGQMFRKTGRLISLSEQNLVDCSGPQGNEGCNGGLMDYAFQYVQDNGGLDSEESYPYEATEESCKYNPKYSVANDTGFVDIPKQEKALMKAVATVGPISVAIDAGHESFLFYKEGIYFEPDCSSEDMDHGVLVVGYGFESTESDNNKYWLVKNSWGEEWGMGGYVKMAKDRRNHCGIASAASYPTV

As for `CC(C)(C)[C@H](NC(=O)C(F)(F)F)C(=O)N1C[C@@H]2[C@H]3C[C@H]([C@@H]4C[C@@H]43)[C@@H]2[C@H]1C(=O)N[C@H](C#N)C[C@@H]1CCNC1=O` [Example 2, (1R,2S,3S,6R,7S,8S,10R)—N-[(1S)-1-cyano-2-[(3S)-2-oxopyrrolidin-3-yl]ethyl]-4-[(2S)-3,3-dimethyl-2-(2,2,2-trifluoroacetamido)butanoyl]-4-azatetracyclo[5.3.1.0^{2,6}0.0^{8,10}]undecane-3-carboxamide], the IC50 (in general, the midpoint of a concentration-inhibition curve) in assay [1] is at least 10000 nM; in assay [5], 20 to 200 nM; in assay [6] (read-out: HRV IC50 (bound)) it was over 10000 nM. For the same compound, the results for the EC50 in assay [2], in assay [3] and in assay [4] (read-out: EC50 (class)) were under 100 nM, under 100 nM and 100 to 1000 nM, respectively.
As for `CC(C)(C)[C@H](NC(=O)C(F)(F)F)C(=O)N1C[C@H]2[C@@H]([C@H]1C(=O)N[C@H](C#N)C[C@@H]1CCNC1=O)[C@H]1CC[C@@H]2C12CC2` [Example 18, (1′R,2′S,3′S,6′R,7′S)—N-[(1S)-1-cyano-2-[(3S)-2-oxopyrrolidin-3-yl]ethyl]-4′-[(2S)-3,3-dimethyl-2-(2,2,2-trifluoroacetamido)butanoyl]-4′-azaspiro[cyclopropane-1,10′-tricyclo[5.2.1.0^{2,6}]decane]-3′-carboxamide], the results for the IC50 in assay [1], in assay [5] and in assay [6] (read-out: HRV IC50 (bound)) were at least 10000 nM, under 20 nM and over 10000 nM, respectively. Moreover, the EC50 (commonly the concentration needed to bring the measured effect to its halfway point) in assay [2] is 100 to 1000 nM; in assay [3], under 100 nM; in assay [4] (read-out: EC50 (class)) it was under 100 nM.
On to `CC(C)(C)C(C(=O)N1C[C@H]2[C@@H]([C@H]1C(=O)N[C@H](C#N)C[C@@H]1CCNC1=O)[C@H]1C=C[C@@H]2C1)n1cc(C(F)(F)F)nn1` (stereo partly drawn) [Compound 42, (1S,3aR,4S,7R,7aS)-N-((S)-1-cyano-2-((S)-2-oxopyrrolidin-3-yl)ethyl)-2-(3,3-dimethyl-2-(4-(trifluoromethyl)-1H-1,2,3-triazol-1-yl)butanoyl)-2,3,3a,4,7,7a-hexahydro-1H-4,7-methanoisoindole-1-carboxamide], for which the half-maximal inhibitory concentration (IC50) in assay [1] was at least 10000 nM; in assay [5], 20 to 200 nM; in assay [6] (read-out: HRV IC50 (bound)), over 10000 nM. The EC50 in assay [2], in assay [3] and in assay [4] (read-out: EC50 (class)) was 100 to 1000 nM in each case.
In the case of `CC(C)(C)[C@H](NC(=O)C(F)(F)F)C(=O)N1C[C@@H]2[C@H]3C[C@@H]([C@@H]2[C@H]1C(=O)N[C@H](C#N)C[C@@H]1CCNC1=O)[C@H](O)C3` [Example 85, (1S,2R,3S,6R,7S,9R)—N-[(1S)-1-cyano-2-[(3S)-2-oxopyrrolidin-3-yl]ethyl]-4-[(2S)-3,3-dimethyl-2-(2,2,2-trifluoroacetamido)butanoyl]-9-hydroxy-4-azatricyclo[5.2.1.0^{2,6}]decane-3-carboxamide], the IC50 is at least 10000 nM in assay [1], 200 to 2000 nM in assay [5] and over 10000 nM in assay [6] (read-out: HRV IC50 (bound)). Further, the EC50 in assay [2] (setting [7]) was over 10000 nM; in assay [3], 10000 to 50000 nM; in assay [4] (read-out: EC50 (bound)), over 10000 nM.
For `CC(C)(C)[C@H](NC(=O)C(F)(F)F)C(=O)N1C[C@H]2[C@@H]([C@H]1C(=O)NC(C#N)CC1CCc3cnnn31)[C@H]1C=C[C@@H]2C1` (stereo partly drawn) [Example 37, (1R,2S,3S,6R,7S)—N-(1-cyano-2-{4H,5H,6H-pyrrolo[1,2-c][1,2,3]triazol-6-yl}ethyl)-4-[(2S)-3,3-dimethyl-2-(2,2,2-trifluoroacetamido)butanoyl]-4-azatricyclo[5.2.1.0^{2,6}]dec-8-ene-3-carboxamide], the IC50 is at least 10000 nM in assay [1], 20 to 200 nM in assay [5] and over 10000 nM in assay [6] (read-out: HRV IC50 (bound)). In addition, the EC50 was 1000 to 10000 nM in assay [2], 1000 to 10000 nM in assay [3] and over 10000 nM in assay [4] (read-out: EC50 (bound)).
For `CC(C)(C)[C@H](NC(=O)C(F)(F)F)C(=O)N1C[C@H]2[C@@H]([C@H]1C(=O)N[C@H](C#N)C[C@@H]1CCNC1=O)[C@H]1C=C[C@@H]2CC1` (mixture of isomers) [Compound 59], the IC50 in assay [1] is at least 10000 nM; in assay [5], under 20 nM; in assay [6] (read-out: HRV IC50 (bound)) it was over 10000 nM. In addition, the 50% effective concentration (EC50) in assay [2], in assay [3] and in assay [4] (read-out: EC50 (class)) was under 100 nM in each case.
Take `CC(C)(C)[C@H](NC(=O)C1(F)CC1)C(=O)N1C[C@H]2[C@@H]([C@H]1C(=O)N[C@H](C#N)C[C@@H]1CCNC1=O)[C@H]1C=C[C@@H]2C1` [Example 30, (1R,2S,3S,6R,7S)—N-[(1S)-1-cyano-2-[(3S)-2-oxopyrrolidin-3-yl]ethyl]-4-[(2S)-2-[(1-fluorocyclopropyl)formamido]-3,3-dimethylbutanoyl]-4-azatricyclo[5.2.1.0^{2,6}]dec-8-ene-3-carboxamide]: the IC50 in assay [1] is at least 10000 nM; in assay [5], under 20 nM; in assay [6] (read-out: HRV IC50 (bound)) it was over 10000 nM. Besides, the EC50 in assay [2], in assay [3] and in assay [4] (read-out: EC50 (class)) was under 100 nM each time.
Regarding `CC(C)(C)[C@H](OC1CC1)C(=O)N1C[C@H]2[C@@H]([C@H]1C(=O)N[C@H](C#N)C[C@@H]1CCNC1=O)[C@H]1C=C[C@@H]2C1` [Compound 54], the results for the IC50 in assay [1], in assay [5] and in assay [6] (read-out: HRV IC50 (bound)) were at least 10000 nM, 200 to 2000 nM and over 10000 nM, respectively. Besides, the 50% effective concentration (EC50) in assay [2] (setting [7]) was over 10000 nM; in assay [3], 1000 to 10000 nM; in assay [4] (read-out: EC50 (bound)) it was over 10000 nM.
On to `O=C(NC1CC1)C(=O)C(C[C@@H]1CCNC1=O)NC(=O)[C@@H]1[C@@H]2[C@H](CN1C(=O)c1nc3c(Cl)ccc(Cl)c3[nH]1)[C@@H]1C=C[C@H]2C1` (stereo partly drawn) [Compound 45, (1S,3aR,4S,7R,7aS)—N-(4-(cyclopropylamino)-3,4-dioxo-1-((S)-2-oxopyrrolidin-3-yl)butan-2-yl)-2-(4,7-dichloro-1H-benzo[d]imidazole-2-carbonyl)-2,3,3a,4,7,7a-hexahydro-1H-4,7-methanoisoindole-1-carboxamide], for which the IC50 in assay [1] was at least 10000 nM; in assay [5] it was 20 to 200 nM; in assay [6] (read-out: HRV IC50 (class)) it was 2000 to 20000 nM. The EC50 in assay [2], in assay [3] and in assay [4] (read-out: EC50 (class)) was 1000 to 10000 nM throughout.
As for `CC(C)(C)[C@H](OCC1CC1)C(=O)N1C[C@H]2[C@@H]([C@H]1C(=O)N[C@H](C#N)C[C@@H]1CCNC1=O)[C@H]1C=C[C@@H]2C1` [Compound 56], the figures for the IC50 in assay [1], in assay [5] and in assay [6] (read-out: HRV IC50 (bound)) were at least 10000 nM, 200 to 2000 nM and over 10000 nM, respectively. The EC50 in assay [2] was 1000 to 10000 nM; in assay [3], 1000 to 10000 nM; in assay [4] (read-out: EC50 (bound)), over 10000 nM.
In the case of `[2H][C@@H]1[C@H]([2H])[C@@H]2C[C@H]1[C@H]1[C@@H]2CN(C(=O)[C@@H](NC(=O)C(F)(F)F)C(C)(C)C)[C@@H]1C(=O)N[C@H](C#N)C[C@@H]1CCNC1=O` [Example 32, (1S,3aR,4R,5S,6R,7S,7aS)-N-((S)-1-cyano-2-((S)-2-oxopyrrolidin-3-yl)ethyl)-2-((S)-3,3-dimethyl-2-(2,2,2-trifluoroacetamido)butanoyl)octahydro-1H-4,7-methanoisoindole-5,6-d^2-1-carboxamide], the IC50 in assay [1] is at least 10000 nM; in assay [5], under 20 nM; in assay [6] (read-out: HRV IC50 (bound)), over 10000 nM. Moreover, the EC50 in assay [2], in assay [3] and in assay [4] (read-out: EC50 (class)) was under 100 nM in each case.
For `CN1CC(C[C@@H](C#N)NC(=O)[C@@H]2[C@@H]3[C@H](CN2C(=O)[C@@H](NC(=O)C(F)(F)F)C(C)(C)C)[C@@H]2C=C[C@H]3C2)C(=O)N1` (stereo partly drawn) [Compound 49, (1S,3aR,4S,7R,7aS)-N-((S)-1-cyano-2-(1-methyl-3-oxopyrazolidin-4-yl)ethyl)-2-((S)-3,3-dimethyl-2-(2,2,2-trifluoroacetamido)butanoyl)-2,3,3a,4,7,7a-hexahydro-1H-4,7-methanoisoindole-1-carboxamide], the IC50 in assay [1] was at least 10000 nM; in assay [5] it was under 20 nM; in assay [6] (read-out: HRV IC50 (bound)), over 10000 nM. In addition, the EC50 in assay [2], in assay [3] and in assay [4] (read-out: EC50 (class)) was 100 to 1000 nM throughout.
For the compound `CC(C)(C)[C@H](NC(=O)C(F)(F)F)C(=O)N1C[C@@H]2[C@H]3C[C@@H]([C@@H]2[C@H]1C(=O)N[C@H](C#N)C[C@@H]1CCNC1=O)[C@H]1[C@@H]3C1(F)F` [Example 23, (1S,2S,3S,6R,7R,8R,10S)—N-[(1S)-1-cyano-2-[(3S)-2-oxopyrrolidin-3-yl]ethyl]-4-[(2S)-3,3-dimethyl-2-(2,2,2-trifluoroacetamido)butanoyl]-9,9-difluoro-4-azatetracyclo[5.3.1.0^{2,6}0.0^{8,10}]undecane-3-carboxamide], the IC50 in assay [1] was at least 10000 nM; in assay [5], 20 to 200 nM; in assay [6] (read-out: HRV IC50 (bound)) it was over 10000 nM. Further, the EC50 in assay [2] was 100 to 1000 nM; in assay [3], 100 to 1000 nM; in assay [4] (read-out: EC50 (class)), 1000 to 10000 nM.
